Reference: patent US20020026053A1, “Novel 3-(substituted) -2- indolinones compounds and use thereof as inhibitors of protein kinase activity” (priority 1997, published 2002)

Columns and labels:
FLK-1 receptor = test: FLK-1 Assay (cellular/catalytic ELISA, VEGF-stimulated phosphotyrosine); format: cell-based; set-up: concentration or dose not given beside the values; conditions: protocol P.110
Method in brief: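 Receptor phosphotyrosine ELISA: Flk-1-expressing NIH3T3 C7#3 cells, starved overnight in 0.1% FBS medium, received compound (1:200 final dilution, 0.5% DMSO) for 2 h at 37 °C, then VEGF. Anti-FLK-1-captured receptor was probed with anti-phosphotyrosine UB40 and peroxidase/ABTS read-out, relative to cells without compound.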

PDGF-R = PDGF-R Assay (cellular ELISA, U1242 cells); format: cell-based; set-up: concentration or dose not given beside the values; conditions: protocol P.119
Method in brief: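 Cellular ELISA for receptor autophosphorylation: after 2 hr test-compound treatment of serum-free U1242 cells at 37°C, ligand is added for 5–10 min, cells are lysed (HNTG) and receptor captured by specific antibody. Anti-phosphotyrosine plus secondary antibody with ABTS colour read at 410/630 nm, compared with compound-free control cells.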

SMILES	Flk Kinase % Inhibition (P.110) (FLK-1 receptor) [%]	PDGF Kinase % Inhibition (P.119) (PDGF-R) [%]
O=C1Nc2ccc(S(=O)(=O)N3CCOCC3)cc2C1=Cc1cccc(OCc2ccccc2)c1 [10739/F03]	24.5	−7.4
O=C1Nc2ccc(CCCl)cc2C1=Cc1cccc(OCc2ccccc2)c1 [10739/G03]	1.9	−6.9
O=C1Nc2ccc(CCCl)cc2C1=Cc1ccc(O)cc1Cl [10739/G06]	14.0	−6.4
COc1ccc(Oc2cccc(C=C3C(=O)Nc4ccc(S(=O)(=O)Nc5ccc(C(F)(F)F)cc5)cc43)c2)cc1 [10739/E08]	17.2	21.7
O=C1Nc2ccc(S(=O)(=O)Nc3ccc(C(F)(F)F)cc3)cc2C1=Cc1ccc(O)cc1Cl [10739/E06]	34.3	72.7
O=C1Nc2ccc(S(=O)(=O)N3CCOCC3)cc2C1=Cc1cc(O)c(O)c(O)c1 [10739/F07]	0.6	23.7
Cc1c(Br)ccc2c1C(=Cc1ccoc1)C(=O)N2 [10739/C10]	−7.1	−18.6
CNS(=O)(=O)c1ccc2c(c1)C(=Cc1ccc(OC)c(C)c1)C(=O)N2 [10739/D02]	25.6	17.8
CN(C)CCCOc1ccc(C=C2C(=O)Nc3ccc(S(=O)(=O)Nc4ccc(C(F)(F)F)cc4)cc32)cc1 [10739/E09]	24.5	18.3
O=C1Nc2ccc(S(=O)(=O)Nc3ccc(C(F)(F)F)cc3)cc2C1=Cc1cccc(OCc2ccccc2)c1 [10739/E03]	−119.0	2.8
CNS(=O)(=O)c1ccc2c(c1)C(=Cc1cc(O)c(O)c(O)c1)C(=O)N2 [10739/D07]	−5.1	18.8
COc1ccc(Oc2cccc(C=C3C(=O)Nc4ccc(Br)c(C)c43)c2)cc1 [10739/C08]	4.8	11.0
Cc1c(Br)ccc2c1C(=Cc1cccc(OCc3ccccc3)c1)C(=O)N2 [10739/C03]	16.4	10.1
CNS(=O)(=O)c1ccc2c(c1)C(=Cc1ccc(OCc3ccccc3)cc1)C(=O)N2 [10739/D04]	11.8	7.2
O=C1Nc2c(Br)cc(Br)cc2C1=Cc1ccoc1 [10739/A10]	−2.5	−1.1
O=C1Nc2ccc(CCCl)cc2C1=Cc1ccc(CO)o1 [10739/G11]	9.8	7.6
O=C1Nc2ccc(S(=O)(=O)N3CCOCC3)cc2C1=Cc1ccc(CO)o1 [10739/F11]	11.9	0.8
COc1ccc(Oc2cccc(C=C3C(=O)Nc4c(Br)cc(Br)cc43)c2)cc1 [10739/A08]	−25.5	3.8
O=C1Nc2ccc(I)cc2C1=CC1COc2ccccc2O1 (stereo not shown) [10739/B05]	4.1	4.7
Cc1c(Br)cc(Br)c2c1C(=Cc1ccc(Cl)c(Cl)c1)C(=O)N2 [10738/H08]	−12.7	
O=C1Nc2ccc(I)cc2C1=Cc1ccc(CO)o1 [10739/B11]	12.5	−9.8
COc1ccc(Oc2cccc(C=C3C(=O)Nc4ccc(I)cc43)c2)cc1 [10739/B08]	6.5	−0.1
O=C1Nc2ccc(S(=O)(=O)Nc3ccc(C(F)(F)F)cc3)cc2C1=Cc1ccoc1 [10739/E10]	11.2	25.6
O=C1Nc2ccc(S(=O)(=O)N3CCOCC3)cc2C1=Cc1ccc(O)cc1Cl [10739/F06]	13.7	9.1
O=C1Nc2ccc(CCCl)cc2C1=Cc1ccoc1 [10739/G10]	−2.0	−0.6
Cc1c(Br)ccc2c1C(=Cc1ccc(OCc3ccccc3)cc1)C(=O)N2 [10739/C04]	21.8	19.3

SMILES	Flk Kinase % Inhibition (P.110) (FLK-1 receptor) [%]	PDGF Kinase % Inhibition (P.119) (PDGF-R) [%]
COc1ccc(C=C2C(=O)Nc3ccc(Br)c(C)c32)cc1C [10739/C02]	−10.8	10.6
COc1ccc(C=C2C(=O)Nc3ccc(S(=O)(=O)Nc4ccc(C(F)(F)F)cc4)cc32)cc1C [10739/E02]	26.7	18.3
Cc1c(Br)cc(Br)c2c1C(=Cc1ccoc1)C(=O)N2 [10739/H10]	15.0	−13.2
O=C1Nc2ccc(I)cc2C1=Cc1ccoc1 [10739/B10]	−10.1	−16.1
O=C1Nc2ccc(I)cc2C1=Cc1ccc(OCc2ccccc2)cc1 [10739/B04]	13.2	19.8
O=C1Nc2ccc(I)cc2C1=Cc1ccc(O)cc1Cl [10739/B06]	9.3	6.7
O=C1Nc2c(Br)cc(Br)cc2C1=Cc1ccc(CO)o1 [10739/A11]	3.9	1.8
CNS(=O)(=O)c1ccc2c(c1)C(=Cc1cccc(Oc3ccc(OC)cc3)c1)C(=O)N2 [10739/D08]	14.3	5.7
COc1ccc(C=C2C(=O)Nc3ccc(S(=O)(=O)N4CCOCC4)cc32)cc1C [10739/F02]	25.5	6.2
COc1ccccc1C=C1C(=O)Nc2c(Br)cc(Br)c(C)c21 [10738/H09]	−6.5	
CN(C)CCCOc1ccc(C=C2C(=O)Nc3ccc(S(=O)(=O)N4CCOCC4)cc32)cc1 [10739/F09]	15.6	3.3
Cc1c(Br)ccc2c1C(=Cc1ccc(O)cc1Cl)C(=O)N2 [10739/C06]	17.7	33.8
O=C1Nc2ccc(CCCl)cc2C1=CC1COc2ccccc2O1 (stereo not shown) [10739/G05]	10.7	−5.9
O=C1Nc2c(Br)cc(Br)cc2C1=Cc1ccc(O)cc1Cl [10739/A06]	7.4	17.8
O=C1Nc2ccc(S(=O)(=O)Nc3ccc(C(F)(F)F)cc3)cc2C1=Cc1ccc(OCc2ccccc2)cc1 [10739/E04]	17.7	5.2
O=C1Nc2ccc(CCCl)cc2C1=Cc1cc(O)c(O)c(O)c1 [10739/G07]	−4.9	10.1
O=C1Nc2c(Br)cc(Br)cc2C1=CC1COc2ccccc2O1 (stereo not shown) [10739/A05]	−11.0	15.9
Cc1c(Br)cc(Br)c2c1C(=Cc1ccc(OCc3ccccc3)cc1)C(=O)N2 [10739/H04]	9.9	−14.2
O=C1Nc2c(Br)cc(Br)cc2C1=Cc1cc(O)c(O)c(O)c1 [10739/A07]	4.1	34.8
CNS(=O)(=O)c1ccc2c(c1)C(=Cc1ccc(OCCCN(C)C)cc1)C(=O)N2 [10739/D09]	−32.8	4.7
O=C1Nc2ccc(S(=O)(=O)Nc3ccc(C(F)(F)F)cc3)cc2C1=Cc1ccc(CO)o1 [10739/E11]	15.3	15.9
O=C1Nc2c(Br)cc(Br)cc2C1=Cc1ccc(OCc2ccccc2)cc1 [10739/A04]	−8.2	23.2
Cc1c(Br)cc(Br)c2c1C(=Cc1cc(O)cc(O)c1)C(=O)N2 [10738/H07]	−17.4	
CCCOc1ccc(C=C2C(=O)Nc3c(Br)cc(Br)c(C)c32)cc1 [10738/H11]	−4.1	
Cc1c(Br)cc(Br)c2c1C(=Cc1ccc(C(C)C)cc1)C(=O)N2 [10738/H10]	1.7	
